Source: patent US20180000085A1, “USE OF PICOLINAMIDE COMPOUNDS WITH FUNGICIDAL ACTIVITY” (DOW AGROSCIENCES LLC, priority 2014, published 2018)

What was measured:
Type in all cases: in vivo
Zymoseptoria tritici = assay: Leaf blotch of wheat (SEPTTR) disease control on wheat seedlings; conditions: low volume application, 125.1 g/H
Leptosphaeria nodorum = assay: Wheat glume blotch (LEPTNO) disease control; conditions: 100 ppm, 1 Day Protectant
Experimental: All fungicides were evaluated using the aforementioned method for their activity vs. all target diseases, unless stated otherwise. Wheat leaf blotch and brown rust activity were also evaluated using track spray applications, in which case the fungicides were formulated as EC formulations, containing 0.1% Trycol 5941 in the spray solutions. Wheat plants (variety Yuma) were grown from seed in a greenhouse in 50% mineral soil/50% soil-less Metro mix until the first leaf was fully emerged, with 7-10 seedlings per pot. These plants were inoculated with an aqueous spore suspension of Zymoseptoria tritici either prior to or after fungicide treatments. After inoculation the plants were kept in 100% relative humidity (one day in a dark dew chamber followed by two to three days in a lighted dew chamber at 20° C.) to permit spores to germinate and infect the leaf. The plants were then transferred to a greenhouse set at 20° C. for disease to develop. When disease symptoms were fully expressed on the 1st leaves of untreated plants, infection levels were assessed on a scale of 0 to 100 percent disease severity. Percent disease control was calculated using the ratio of disease severity on treated plants relative to untreated plants. Example C: Evaluation of Fungicidal Activity: Wheat Glume Blotch (Leptosphaeria nodorum; Bayer Code […]) Wheat plants (variety Yuma) were grown from seed in a greenhouse in 50% mineral soil/50% soil-less Metro mix until the first leaf was fully emerged, with 7-10 seedlings per pot. These plants were inoculated with an aqueous spore suspension of Leptosphaeria nodorum 24 hr after fungicide treatments. After inoculation the plants were kept in 100% relative humidity (one day in a dark dew chamber followed by two days in a lighted dew chamber at 20° C.) to permit spores to germinate and infect the leaf. The plants were then transferred to a greenhouse set at 20° C. for disease to develop. Fungicide formulation, application and disease assessment followed the procedures as described in the Example A.

Rhyncosporium secalis = assay: Barley scald (RHYNSE) disease control; conditions: 100 ppm, 1 Day Protectant
Experimental: All fungicides were evaluated using the aforementioned method for their activity vs. all target diseases, unless stated otherwise. Wheat leaf blotch and brown rust activity were also evaluated using track spray applications, in which case the fungicides were formulated as EC formulations, containing 0.1% Trycol 5941 in the spray solutions. Wheat plants (variety Yuma) were grown from seed in a greenhouse in 50% mineral soil/50% soil-less Metro mix until the first leaf was fully emerged, with 7-10 seedlings per pot. These plants were inoculated with an aqueous spore suspension of Zymoseptoria tritici either prior to or after fungicide treatments. After inoculation the plants were kept in 100% relative humidity (one day in a dark dew chamber followed by two to three days in a lighted dew chamber at 20° C.) to permit spores to germinate and infect the leaf. The plants were then transferred to a greenhouse set at 20° C. for disease to develop. When disease symptoms were fully expressed on the 1st leaves of untreated plants, infection levels were assessed on a scale of 0 to 100 percent disease severity. Percent disease control was calculated using the ratio of disease severity on treated plants relative to untreated plants. Example H: Evaluation of Fungicidal Activity: Barley Scald (Rhyncosporium secalis; Bayer Code […]) Barley seedlings (variety Harrington) were propagated in soil-less Metro mix, with each pot having 8 to 12 plants, and used in the test when first leaf was fully emerged. Test plants were inoculated by an aqueous spore suspension of Rhyncosporium secalis 24 hr after fungicide treatments. After inoculation the plants were kept in a dew room at 22° C. with 100% relative humidity for 48 hr. The plants were then transferred to a greenhouse set at 20° C. for disease to develop. Fungicide formulation, application and disease assessment on the sprayed leaves followed the procedures as described in the Example A.

SMILES	LV activity at 125.1 g/H SEPTTR 1DP (disease control rating) (Zymoseptoria tritici; 1 Day Protectant, wheat leaf blotch)	LV activity at 125.1 g/H SEPTTR 3DC (disease control rating) (Zymoseptoria tritici; 3 Day Curative, wheat leaf blotch)	LEPTNO disease control, 1DP (Leptosphaeria nodorum)	RHYNSE disease control, 1DP (Rhyncosporium secalis)	SEPTTR 1DP, LV activity at 125.1 g/H (% Control rating) (Zymoseptoria tritici; 1 Day Protectant)	SEPTTR 3DC, LV activity at 125.1 g/H (% Control rating) (Zymoseptoria tritici; 3 Day Curative)
COc1ccnc(C(=O)N[C@@H](C)C(=O)O[C@@H](C)[C@@H](CC(C)C)Oc2ccccc2)c1OCOC(=O)C(C)C [Cmpd 1101]	A (> 80)	A (> 80)	B (≤ 80)	A (> 80)	–	–
COc1ccnc(C(=O)N[C@@H](C)C(=O)O[C@@H](C)[C@H](Oc2ccccc2)C(C)C)c1OC(C)=O [Cmpd 478]	–	–	A (> 80)	B (≤ 80)	A (> 80)	A (> 80)
CCC(CC)[C@@H](Oc1ccc(F)cc1)[C@H](C)OC(=O)[C@H](C)NC(=O)c1nccc(OC)c1OCOC(C)=O [Cmpd 587]	–	–	A (> 80)	B (≤ 80)	A (> 80)	A (> 80)
COc1ccnc(C(=O)N[C@@H](C)C(=O)O[C@@H](C)[C@H](Oc2cc(F)cc(Cl)c2)C(C)C)c1OCOC(C)=O [Cmpd 617]	–	–	A (> 80)	B (≤ 80)	A (> 80)	A (> 80)
COc1ccnc(C(=O)N[C@@H](C)C(=O)O[C@@H](C)[C@H](Oc2cc(F)cc(Cl)c2)c2ccccc2)c1OC(C)=O [Cmpd 642]	–	–	A (> 80)	A (> 80)	A (> 80)	A (> 80)
CCC(CC)[C@@H](Oc1ccccc1)[C@H](C)OC(=O)[C@H](C)NC(=O)c1nccc(OC)c1OC(C)=O [Cmpd 479]	–	–	A (> 80)	B (≤ 80)	A (> 80)	A (> 80)
